“Also recorded” adds a separate entry of the source.
Legend:
[1] = tested on: cells in peritoneal washing obtained during an operation of a patient with endometrial cancer (endometrial endometrioid adenocarcinoma); assay: Live-cell fluorescence imaging by perfusion, cells in peritoneal washing, endometrial cancer patient (Example 5); assay type: cell-based, human; conditions: cell clusters a and b (apparent mesothelial cells and apparent macrophage cells); perfusion 100 μM 2-NBDLG and 20 μM 2TRLG; FIG. 11A/11B, 12D
Experimental: A peritoneal washing obtained immediately after the start of laparotomy for endometrial cancer (endometrial endometrioid adenocarcinoma) in the same manner as in Example 1 was added to a 50 mL centrifuge tube having 5 mL of the Hanks solution in advance. Fibrin, fat, and impurities were removed from the ascitic fluid suspension in the same manner as in Example 4. Subsequently, a half of it was dispensed into a 50 mL centrifuge tube, and centrifuged at 1500 G for 2 minutes at room temperature. The supernatant was processed in the same manner as in Example 4 to obtain 1 mL of an ascites-cell suspension. • (2) Adhesion of Ascites Cells on Glass Plate by Centrifugation, and Method of Maintaining Cell Viability
The ascites-cell suspension in an amount of 1 mL taken at (1) was transferred to a plastic chamber dedicateded for CF-12D as in Example 4. The ascites cells were allowed to attach on a glass plate by centrifugation at 1400 rpm for 1 minute at room temperature. The plate was then treated as in Example 4, and stored in a moisture chamber until being mounted on the perfusion stage. • (3) Attachment of Glass Plate on Perfusion Stage and Perfusion […]
It was performed as in Example 4. Only a green fluorescence image was taken before administration of the fluorescently labeled L-glucose derivative. […]

cultured cells = conditions: 2-TRLG and 2-NBDLG applied together to cultured cells; cited from earlier work
[2] = tested on: ascites cells obtained during an operation of a patient with ovarian cancer (serous adenocarcinoma); assay: Live-cell fluorescence imaging by the perfusion method, original ascites cells, ovarian cancer patient (Example 4); assay type: cell-based, human; conditions: cancer cell cluster; perfusion 100 μM 2-NBDLG and 20 μM 2-TRLG for 5 minutes, imaged 10 minutes after switch to KRB; FIG. 7A/7B, 8D
Experimental: A surplus portion of the original ascitic fluid taken from the peritoneal cavity immediately after the start of laparotomy for ovarian cancer (serous adenocarcinoma) was added to a 50 mL centrifuge tube having 5 mL of the Hanks solution in advance. The obtained ascitic fluid suspension was checked for presence of fibrin with a toothpick, and then passed through a mesh to remove fat and impurities. Next, it was evenly dispensed into two 50 mL centrifuge tubes, and centrifuged at 1500 G for 2 minutes at room temperature. The supernatant of each of the two centrifuge tubes was then gently removed from the liquid surface down to 7.5 mL with an electric pipette, and then the rest was further removed with a dropper to leave 1 mL. The sedimented layer containing red blood cells and the like were present at the bottom of the centrifuge tube. A 1 mL portion was collected from the upper surface with a dropper without aspirating red blood cells from the sedimented layer to obtain an ascites cell suspension. • (2) Adhesion of Ascites Cells on Glass Plate by Centrifugation, and Method of Maintaining Cell Viability
The ascites cells were allowed to attach on a glass plate using a commercially available automated cell collecting system CF-12D (Sakura Finetek Japan Co., Ltd.). […]

glucose transporter GLUT = conditions: cited from earlier work

O=C[C@@H](Nc1ccc([N+](=O)[O-])c2nonc12)[C@H](O)[C@@H](O)[C@@H](O)CO [2-NBDLG, 2-[N-(7-nitrobenz-2-oxa-1,3-diazole-4-yl)amino]-2-deoxy-L-glucose]
fluorescence from 2-NBDLG (green wavelength region), after vs before application [1]: Neither the cell cluster a nor b shows fluorescence; also recorded: negative
uptake into cells having damaged plasma membranes or showing nonspecific uptake such as phagocytosis (cultured cells): taken up into cells having damaged plasma membranes
fluorescence from 2-NBDLG (green wavelength region), after vs before application of fLG [2]: shows fluorescence; also recorded: positive
binding to glucose transporter GLUT (glucose transporter GLUT): does not bind
